US4877619A, “Liposomal vesicles for intraperitoneal administration of therapeutic agents” (priority 1987, dated 1989)
Read-outs that look alike come from different tables or passages of the source.

Legend:
[1] = rat, in vivo, ip
Procedure: At the times indicated in the table, the animals were anesthetized, exsanguinated and the peritoneal cavities lavaged three time with 20 ml phosphate-buffered saline. The lavage fluid was pooled and centrifuged at low speed. "Peritoneal fluid" refers to fluid lavaged and pooled from the peritoneal cavity and contains small sized vesicles. "Peritoneal pellet" refers to the pelleted portion of the lavaged peritoneal fluid, and contains cellular matter (predominately peritoneal macrophage) and large vesicles. The remaining tissues were collected, washed, blotted, weighed and distributed into tubes for gamma counting.

[2] = assay type: physicochemical
Procedure: 3.9 ml of the Na-IBF solution is injected into each flask containing lipid film. The flasks are vortex-stirred for 40 to 60 minutes in a 65° C. water bath under nitrogen. (The nitrogen purge is first passed through a 0.22 micron filter.) To the contents of each flask is added sterile, pyrogen-free phosphate buffered saline, and the flasks are centrifuged for 6 to 10 minutes at 15,000 rpm. This washing procedure is repeated for a total of five times to remove unencapsulated Na-IBF. The contents of the flasks are then combined and PBS (5 mM PO4^3- in 0.15 N NaCl) is added to a total of 32 ml. The liposome suspension thus produced comprises ILDVs of about 1 micron or larger in size suspended in the PBS.

Feces ([1]; 1 h) | TOTAL ([1]; 1 h) | Urine ([1]; 1 h) | Feces ([1]; 2 h) | TOTAL ([1]; 2 h) | Urine ([1]; 2 h) | Feces ([1]; 6 h) | TOTAL ([1]; 6 h) | Urine ([1]; 6 h) | Feces ([1]; 24 h) | TOTAL ([1]; 24 h) | Urine ([1]; 24 h) | Molecule | Clearance after intraperitoneal injection [1] | Storage stability of liposome suspension [2]
4.6 % Inj. Dose | 32.58 % Inj. Dose | 19 % Inj. Dose | .02 % Inj. Dose | 76.73 % Inj. Dose | 73 % Inj. Dose | 7.6 % Inj. Dose | 71.27 % Inj. Dose | 60.2 % Inj. Dose | 16.83 % Inj. Dose | 33.91 % Inj. Dose | 14.05 % Inj. Dose | O=C([O-])CN(CCN(CC(=O)[O-])CC(=O)[O-])CC(=O)[O-].[111In+3] [^111 In-EDTA, Indium-III chelated to ethylenediamine tetracetic acid] | rapid clearance from the peritoneal cavity and from the whole body | 
 |  |  |  |  |  |  |  |  |  |  |  | Sodium Ibuprofenate |  | storage-stable for a period of several months
